As usually defined, the pEC50 is the negative decadic logarithm of the EC50, by convention in mol/L.

EC50 data for 16 compounds are collected here from US20250320213A1, “Nitrogen-Containing Heterocyclic Compounds” (Pfizer Inc., priority 2024, published 2025).

SMILES strings stand for the structures. pEC50: −log10 of the molar value.

One experiment concerns the target T1, STAT6 (Homo sapiens, UniProt P42226).
T1 construct: stably transfected HaCaT keratinocyte cell line, which expresses NanoLuc luciferase reporter gene under the transcriptional control of the STAT6 responsive promoter; endogenous in cells; host or cells: HaCaT keratinocyte reporter cell line (stably transfected with a NanoLuc reporter)
T1 sequence (P42226 1-847): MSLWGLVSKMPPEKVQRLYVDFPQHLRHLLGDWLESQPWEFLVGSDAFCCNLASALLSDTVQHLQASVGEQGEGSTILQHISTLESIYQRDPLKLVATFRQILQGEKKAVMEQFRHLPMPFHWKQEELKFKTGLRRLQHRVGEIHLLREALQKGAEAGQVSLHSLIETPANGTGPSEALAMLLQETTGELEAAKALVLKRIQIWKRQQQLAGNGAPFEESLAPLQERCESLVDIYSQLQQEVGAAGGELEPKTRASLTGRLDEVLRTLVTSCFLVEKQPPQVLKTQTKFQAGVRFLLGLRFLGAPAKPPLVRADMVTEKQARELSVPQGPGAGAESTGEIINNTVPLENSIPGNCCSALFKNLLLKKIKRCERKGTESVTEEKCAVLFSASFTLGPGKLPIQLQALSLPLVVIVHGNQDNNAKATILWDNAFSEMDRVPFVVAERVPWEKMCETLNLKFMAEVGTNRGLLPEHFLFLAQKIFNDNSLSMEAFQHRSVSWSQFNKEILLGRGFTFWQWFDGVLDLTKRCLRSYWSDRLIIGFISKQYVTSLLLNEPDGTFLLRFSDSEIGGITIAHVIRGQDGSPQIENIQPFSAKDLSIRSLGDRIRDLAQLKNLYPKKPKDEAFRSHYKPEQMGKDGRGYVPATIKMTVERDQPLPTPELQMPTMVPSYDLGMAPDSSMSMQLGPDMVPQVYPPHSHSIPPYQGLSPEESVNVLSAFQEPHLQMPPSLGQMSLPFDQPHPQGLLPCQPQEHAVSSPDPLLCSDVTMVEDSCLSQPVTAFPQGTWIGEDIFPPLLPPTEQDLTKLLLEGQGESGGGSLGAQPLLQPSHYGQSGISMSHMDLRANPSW
In words: STAT6 Reporter Luciferase Assay (IL-13 stimulated HaCaT keratinocyte NanoLuc reporter cells). The class given is cell-based. Conditions: IL-13 stimulated HaCaT STAT6 NanoLuc reporter cells; read-out: Reporter EC50. How it is done:
Pharmacological measurements of STAT6 transcriptional activity through the IL-13-IL-13 receptor/IL-4 receptor pathway were made with a stably transfected HaCaT keratinocyte cell line, which expresses NanoLuc luciferase reporter gene under the transcriptional control of the STAT6 responsive promoter for IL-13Ra2. The readout of the STAT6 activity utilized Promega Nano-Glo Luciferase assay kit.
The reporter cells were cultured in a growth media comprised of DMEM High Glucose, no calcium and no glutamine, 10% heat inactivated fetal bovine serum (HI FBS), 1% 100× Glutamax, and 100 U/mL Penicillin-Streptomycin (units of penicillin in 1 mL of streptomycin). Seven thousand cells were plated in 25 microliter (μL) per well in a 384-well, white bottom, tissue culture plate. Cells were cultured overnight at 37° C. The next day, test compounds (solubilized and serially diluted in DMSO, in an 11 point, 4-fold dilution series in duplicate) were spotted, 60 nanoliters (nL) per well, into a 384 well v-bottom polypropylene plate. Thirty μL per well of 37° C. dosing media (Dulbecco's modified eagle medium (DMEM) High Glucose, no calcium and no glutamine with 2% HI FBS) was added to the compound plate. Growth media was removed from the cell plate, and the cells were washed with DPBS. Twenty μL per well of compounds diluted in dosing media were transferred from the compound plate to the cell plate and the compounds were further diluted with an additional 15 μL of dosing media in the cell plate: the cell plate was incubated for two hours at 37° C. After two hours, STAT6 activity was stimulated with the addition of 5 μL per well of IL-13 (R&D Systems) in dosing media with a final concentration of 0.12 nM IL13. Cells were incubated at 37° C. for 4 hours to allow for reporter gene expression, then all media was removed from the plate. The cell plates were treated with assay buffer and Luciferase substrate from Nano-Glo Luciferase Assay Kit for 15 min and then measured for luminescence on an EnVision 2105 multilabel reader (PerkinElmer).
As for `Cc1cccc2c1CN(C(=O)c1ccc(N3CCc4c(c(C(=O)NCc5ccc(NC(=O)N(C)C)cc5)nn4C(C)C)C3)nc1)C2` [Example 441, N-(4-(3,3-dimethylureido)benzyl)-1-isopropyl-5-(5-(4-methylisoindoline-2-carbonyl)pyridin-2-yl)-4,5,6,7-tetrahydro-1H-pyrazolo[4,3-c]pyridine-3-carboxamide], the pEC50 was 8.70.

As to `CC(C)n1nc(C(=O)NCc2ccc(NC(=O)N(C)C)cc2)c2c1CCN(c1ccc(C(=O)N3CCc4nccnc4C3)cn1)C2` [Example 366, N-(4-(3,3-dimethylureido)benzyl)-1-isopropyl-5-(5-(5,6,7,8-tetrahydropyrido[3,4-b]pyrazine-6-carbonyl)pyridin-2-yl)-4,5,6,7-tetrahydro-1H-pyrazolo[4,3-c]pyridine-3-carboxamide], the pEC50 is 7.54.

Turning to `CC(C)n1nc(C(=O)NCc2ccc(NC(=O)N3CCN(C)[C@H](C)C3)c(F)c2)c2c1[C@@H](C)CN(c1ccc(C(=O)N(C)C)cc1)C2` [Example 686, (S)-5-(4-(dimethylcarbamoyl)phenyl)-N-(4-((R)-3,4-dimethylpiperazine-1-carboxamido)-3-fluorobenzyl)-1-isopropyl-7-methyl-4,5,6,7-tetrahydro-1H-pyrazolo[4,3-c]pyridine-3-carboxamide], the negative-log EC50 (pEC50) was 9.00. The same measure, in the same setting: the figure for `Cc1nc2c(o1)CCN(C(=O)c1ccc(N3CCc4c(c(C(=O)NCc5ccc(NC(=O)N(C)C)cc5)nn4C(C)C)C3)nc1)C2` [Example 423, N-(4-(3,3-dimethylureido)benzyl)-1-isopropyl-5-(5-(2-methyl-4,5,6,7-tetrahydrooxazolo[4,5-c]pyridine-5-carbonyl)pyridin-2-yl)-4,5,6,7-tetrahydro-1H-pyrazolo[4,3-c]pyridine-3-carboxamide] is 7.54; for `CC(C)n1nc(C(=O)NCc2ccc(NC(=O)N3CC[C@H](CN(C)C)C3)c(F)c2)c2c1[C@@H](C)CN(c1ccc(C(=O)N(C)C)cc1)C2` [Example 684, (S)-N-(4-((R)-3-((dimethylamino)methyl)pyrrolidine-1-carboxamido)-3-fluorobenzyl)-5-(4-(dimethylcarbamoyl)phenyl)-1-isopropyl-7-methyl-4,5,6,7-tetrahydro-1H-pyrazolo[4,3-c]pyridine-3-carboxamide] it is 8.70; for `CC(C)n1nc(C(=O)NCc2ccc(NC(=O)N(C)C)cc2)c2c1CCN(c1ccc(C(=O)N3CCc4cnc(O)cc4C3)cn1)C2` [Example 412, N-(4-(3,3-dimethylureido)benzyl)-5-(5-(7-hydroxy-1,2,3,4-tetrahydro-2,6-naphthyridine-2-carbonyl)pyridin-2-yl)-1-isopropyl-4,5,6,7-tetrahydro-1H-pyrazolo[4,3-c]pyridine-3-carboxamide] it is 6.40. `CC(C)n1nc(C(=O)NCc2ccc(NC(=O)N(C)C)cc2)c2c1CCN(c1ccc(C(=O)N3CCC[C@H]3C(N)=O)cn1)C2` [Example 197, (S)-5-(5-(2-carbamoylpyrrolidine-1-carbonyl)pyridin-2-yl)-N-(4-(3,3-dimethylureido)benzyl)-1-isopropyl-4,5,6,7-tetrahydro-1H-pyrazolo[4,3-c]pyridine-3-carboxamide]: the pEC50 was 6.71. Consider `CC(C)n1nc(C(=O)NCc2ccc(NC(=O)N(C)C)cc2)c2c1CCN(c1ccc(C(=O)N3CC(=O)N(C)[C@H](C)C3)cn1)C2` [Example 293, (R)-5-(5-(3,4-dimethyl-5-oxopiperazine-1-carbonyl)pyridin-2-yl)-N-(4-(3,3-dimethylureido)benzyl)-1-isopropyl-4,5,6,7-tetrahydro-1H-pyrazolo[4,3-c]pyridine-3-carboxamide], for which the pEC50 is 7.00. `CC(C)n1nc(C(=O)NCc2ccc(NC(=O)N3CCC4(CC3)CN(C)C4)c(F)c2)c2c1[C@@H](C)CN(c1ccc(C(=O)N(C)C)cc1)C2` [Example 647, (S)-5-(4-(dimethylcarbamoyl)phenyl)-N-(3-fluoro-4-(2-methyl-2,7-diazaspiro[3.5]nonane-7-carboxamido)benzyl)-1-isopropyl-7-methyl-4,5,6,7-tetrahydro-1H-pyrazolo[4,3-c]pyridine-3-carboxamide]: the pEC50 was 9.00. The same measure, in the same setting: with `CC(C)n1nc(C(=O)NCc2ccc(NC(=O)N3CCC4(CCN(C)C4)CC3)c(F)c2)c2c1[C@@H](C)CN(c1ccc(C(=O)N(C)C)cc1)C2` [Example 642, (S)-N-(4-((5-(4-(dimethylcarbamoyl)phenyl)-1-isopropyl-7-methyl-4,5,6,7-tetrahydro-1H-pyrazolo[4,3-c]pyridine-3-carboxamido)methyl)-2-fluorophenyl)-2-methyl-2,8-diazaspiro[4.5]decane-8-carboxamide] the figure was 9.00; with `CC(C)n1nc(C(=O)NCc2ccc(NC(=O)N3CCC(C(=O)O)CC3)c(F)c2)c2c1[C@@H](C)CN(c1ccc(C(=O)N(C)C)cc1)C2` [Example 734, (S)-1-((4-((5-(4-(dimethylcarbamoyl)phenyl)-1-isopropyl-7-methyl-4,5,6,7-tetrahydro-1H-pyrazolo[4,3-c]pyridine-3-carboxamido)methyl)-2-fluorophenyl)carbamoyl)piperidine-4-carboxylic acid], 7.42. Turning to `CC(C)n1nc(C(=O)NCc2ccc(NC(=O)N3CCN4CCCC[C@@H]4C3)c(F)c2)c2c1[C@@H](C)CN(c1ccc(C(=O)N(C)C)cc1)C2` [Example 687, (R)-N-(4-(((S)-5-(4-(dimethylcarbamoyl)phenyl)-1-isopropyl-7-methyl-4,5,6,7-tetrahydro-1H-pyrazolo[4,3-c]pyridine-3-carboxamido)methyl)-2-fluorophenyl)octahydro-2H-pyrido[1,2-a]lpyrazine-2-carboxamide], the pEC50 was 9.00.

Take `CC(C)n1nc(C(=O)NCc2ccc(NC(=O)N3CC[C@@H](CN(C)C)C3)c(F)c2)c2c1[C@@H](C)CN(c1ccc(C(=O)N(C)C)cc1)C2` [Example 681, (S)-N-(4-((S)-3-((dimethylamino)methyl)pyrrolidine-1-carboxamido)-3-fluorobenzyl)-5-(4-(dimethylcarbamoyl)phenyl)-1-isopropyl-7-methyl-4,5,6,7-tetrahydro-1H-pyrazolo[4,3-c]pyridine-3-carboxamide]: the pEC50 was 8.52.

Turning to `CCn1nc2c(c1C(=O)NCc1ccc(NC(=O)N(C)C)cc1)CN(c1ccc(C(=O)N(C)C)cn1)[C@H](C)[C@H]2C` (stereo in doubt) [Example 317, rel-(6R,7R)-5-(5-(dimethylcarbamoyl)pyridin-2-yl)-N-(4-(3,3-dimethylureido)benzyl)-2-ethyl-6,7-dimethyl-4,5,6,7-tetrahydro-2H-pyrazolo[4,3-c]pyridine-3-carboxamide], the negative-log EC50 (pEC50) is 6.45. As to `CC(C)n1nc(C(=O)NCc2ccc(NC(=O)N(C)C)cc2)c2c1CCN(c1ccc(C(=O)N3CCC(O)CC3)cn1)C2` [Example 295, N-(4-(3,3-dimethylureido)benzyl)-5-(5-(4-hydroxypiperidine-1-carbonyl)pyridin-2-yl)-1-isopropyl-4,5,6,7-tetrahydro-1H-pyrazolo[4,3-c]pyridine-3-carboxamide], the pEC50 is 6.51.

Still in this experiment, the particulars now being: STAT6 NanoLuc luciferase reporter, IL-13 stimulated HaCaT keratinocyte cells; read-out: Reporter EC50.
With `CC(C)n1nc(C(=O)NCc2ccc(NC(=O)N3CCCC(N(C)C)C3)cc2)c2c1CCN(c1ccc(C(=O)N(C)C)cn1)C2` (stereo not shown) [Example 151, N-(4-(3-(dimethylamino)piperidine-1-carboxamido)benzyl)-5-(5-(dimethylcarbamoyl)pyridin-2-yl)-1-isopropyl-4,5,6,7-tetrahydro-1H-pyrazolo[4,3-c]pyridine-3-carboxamide], the pEC50 was 8.05.
